# Assays:
# SYF and SYF+Src cells = test: Protein tyrosine phosphorylation in SYF and SYF+Src cells; assay type: cell-based, mouse; settings: SYF+Src cells
# Description: FIG. 9B. Both SYF and SYF+Src cells were treated with 100 μM ouabain for 5 min and analyzed as in A. Representative Western blots of three experiments are shown in both A and B.
# (§1) Cells were lysed in RIPA buffer containing 1% Nonidet P40, 0.25% sodium deoxycholate, 150 mM NaCl, 1 mM EDTA, 1 mM phenylmethylsulfonyl fluoride, 1 mM sodium orthovanadate, 1 mM NaF, 10 μg/ml aprotinin, 10 μg/mlleupeptin, and 50 mM Tris-HCl (pH 7.4). Cell lysates were cleared by centrifugation at 16,000×g for […], and the supernatants (1 mg) were either immunoprecipitated with anti-α1 antibody or incubated with different GST-fusion proteins. The complexes were then pulled down by either protein G agarose or glutathione beads (Ma et al., 2000; Haas et al., 2002) and analyzed by Western blot.
# PY-17 cells = test: FAK Tyr925 phosphorylation in α1 knockdown cells; assay type: cell-based, pig; settings: 1 μM PP2 for 0.5 and 2 h
# Description: FIG. 17D. P-11 and PY-17 cells were treated with 1 μM PP2 for 0.5 and 2 h. FAK and Src activation was measured by using the specific antibodies. A representative Western blot is shown, and the same experiments were repeated three times.
# (§2) Cells were washed with PBS, solubilized in modified ice-cold radioimmune precipitation assay buffer, and subjected to immunoprecipitation or Western blot analysis. Protein signal was detected using the enhanced chemiluminescence kit and quantified using a Bio-Rad GS-670 imaging densitometer.
# LLC-PK1 cells [1] = test: Recruitment of Src to the Na+/K+-ATPase signaling complex (co-immunoprecipitation); assay type: cell-based, pig; settings: 1 μM pretreatment 15 min, then 1 μM ouabain 5 min
# Description: FIG. 9C Inhibition of Src blocks ouabain-induced recruitment of Src to the Na+/K+-ATPase signaling complex. LLC-PK1 cells were pretreated with 1 μM PP2 or PP3 for 15 min and then exposed to 1 μM ouabain for 5 min. Cell lysates were immunoprecipitated and analyzed. Values are mean±SE of at least four independent experiments. * p<0.05.
# as §1
# LLC-PK1 cells [2] = test: Sensitivity of LLC-PK1-derived cells to selection agents; assay type: cell-based, pig
# Description: Another batch of cells was co-transfected with pEYFP together with the pSuppressor-A4 siRNA and pBade-puro so that the co-expressed EYFP could be used as a marker to pick clones. Empty vector (pSuppressor) or A1 siRNA-transfected cells were co-selected and used as a control. The cells were selected with puromycin (1 μg/ml) 24 h posttransfection. Puromycin-resistant colonies were cloned and expanded. To rescue the Na+/K+-ATPase knockdown cells, cells were transfected with the pRc/CMV-α1AACm1. Selection was initiated with 3 μM ouabain because untransfected cells were very sensitive to ouabain. After about 1 week, ouabain-resistant colonies were isolated and expanded into stable cell lines in the absence of ouabain. G418 was not used because these cells are resistant to it, requiring more than 3 mg/ml to kill the untransfected cells.
# [3] = molecular target: T1, purified pig kidney Na+/K+-ATPase (Sus scrofa, UniProt P05024); test: ATPase activity of purified pig kidney Na+/K+-ATPase; assay type: biochemical
# T1 construct: Na+/K+-ATPase was purified from pig kidney outer medulla using the Jorgensen method; from tissue; host or cells: pig kidney outer medulla
# From the text: Src, without the first 85 amino acid residues, was purified from sf-9 cells as described (Ma et al., 2000) and used in the initial binding assays to ensure that Src binds to the Na+/K+-ATPase, but not the lipid composition in the purified Na+/K+-ATPase preparation. In subsequent experiments (e.g., phosphorylation and activity assays), purified recombinant full-length Src from Upstate Biotechnology was used. Na+/K+-ATPase was purified from pig kidney outer medulla using the Jorgensen method (Xie et al., 1996) and the preparations with specific activities between 1200 and 1400 μmol Pi/mg/h were used.
# GST fusion proteins or His-tagged proteins were expressed in Escherichia coli BL21 and purified on glutathione beads or nickel column.
# [4] = molecular target: T2, Na+/K+-ATPase/Src complex (Sus scrofa, UniProt P05024); test: Src pY418 phosphorylation of the Na+/K+-ATPase/Src complex (Western blot); assay type: biochemical
# T2 construct: Na+/K+-ATPase was purified from pig kidney outer medulla using the Jorgensen method; tissue Upstate Biotechnology (Src only); host or cells: pig kidney outer medulla (Na+/K+-ATPase)
# Description: (§3) The Src kinase activity was assayed using a commercial kit (Haas et al., 2000). To determine how Na+/K+-ATPase affects Src kinase activity, the purified Src (4.5 U) was incubated with 5 μg of the purified Na+/K+-ATPase in the Src assay buffer for 30 min at room temperature. Afterward, both control Src or the Na+/K+-ATPase-bound Src were exposed to 10 μM ouabain and Src kinase activity was determined. In other experiments, the Src pY418 was measured by anti-pY418 antibody to indicate Src activation (Ma et al., 2000). To do so, the purified Src (4.5 U) was incubated with different amounts of the purified Na+/K+-ATPase or GST-Na+/K+ATPase constructs in phosphate-buffered saline (PBS) for 30 min at 37° C. Afterward, 2 mM ATP/Mg2+ was added. The reaction continued for 5 min at 37° C. and was stopped by addition of SDS sample buffer.
# (§4) The purified Na+/K+-ATPase was solubilized in 1% Triton X-100 PBS and centrifuged at 100,000×g for 30 min. The supernatant was collected for the binding assay. GST-fusion proteins (5 μg) were conjugated on glutathione beads and incubated with the solubilized Na+/K+-ATPase in 500 μl PBS in the presence of 0.5% Triton X-100 at room temperature for 30 min. The beads were washed with the same buffer for four times. The bound Na+/K+ATPase was resolved on 10% SDS-PAGE and detected by Western blot. Reciprocal binding assay using GST-Na+/K+-ATPase constructs (5 μg) and purified Src lacking of first 85 amino acids (200 ng) or His-tagged Src constructs (100 ng) was done similarly. To test if native Na+/K+-ATPase binds Src, the above experiments were repeated in the absence of Triton X-100. To make the Na+/K+-ATPase/Src complex, 2-5 μg of the purified Na+/K+ATPase was incubated with 4.5 U of Src (˜10 ng) in PBS in the absence of Triton X-100 at room temperature for 30 min. The complex was either used for the experiments directly as indicated or collected by centrifugation at 100,000×g for 30 min.
# Src [5] = molecular target: T3, Src (Sus scrofa, UniProt K7GM45); test: Src pY418 in LLC-PK1 cells transiently transfected with YFP-tagged constructs; assay type: cell-based, pig; settings: transient transfection 24 h
# T3 construct: endogenous in cells; host or cells: LLC-PK1 (pig kidney)
# Description: FIG. 22A. LLC-PK1 cells were transient-transfected with YFP-tagged ND1, ND, and CD3 for 24 h.
# Cells were then lysed in RIPA buffer and probed for pY418. YFP were also transient-transfected into LLC-PK1 cells as control.
# Src [6] = molecular target: T4, Src (Gallus gallus, UniProt P00523); test: In vitro binding assay of GST-Na+/K+-ATPase constructs with purified or His-tagged Src; design: species or system chicken; settings: purified Src lacking first 84 amino acids, 200 ng
# T4 construct: His; made in house; host or cells: sf-9 cells (Src without the first 85 residues); Escherichia coli BL21 (His-tagged constructs)
# Description: (§5) The preparation of chicken c-Src lacking the SH4 domain and GST-Src mutants were done (Ma et al., 2000). GST-NT (amino acid residue 6-90) [SEQ ID NO: 51], GST-CD2 (amino acid residue 152-288) [SEQ ID NO 52], and GST-CD3 (amino acid residue 350-785) [SEQ ID NO: 53] expression vectors were constructed based on the sequence of pig kidney Na+/K+-ATPase α1 subunit (see FIG. 3A).
# as §4
# Src [7] = test: as above; design: species or system chicken
# Description: as §5, §4
# Src [8] = molecular target: T5, Src (Homo sapiens, UniProt P12931); test: Src pY418 autophosphorylation / activity of purified recombinant Src; assay type: biochemical; settings: recombinant Src (4.5 U) incubated 30 min, then 2 mM ATP/Mg2+ 5 min
# T5 construct: purified recombinant full-length Src from Upstate Biotechnology was used; purchased Upstate Biotechnology (Lake Placid, N.Y.)
# Description: as §3
# The reaction was stopped by adding 5× loading buffer. pY418 was probed to measure Src activation.
# Src [9] = molecular target: T3, Src; test: GST-CD3 pulldown of Src from LLC-PK1 cell lysates; assay type: binding, pig; settings: 1 mg LLC-PK1 cell lysates
# Description: FIG. 4C. A Western blot showing that Src was pulled down by GST-CD3 of Na+/K+-ATPase (Na/K) and H+/K+-ATPase (H/K), but not SERCA from 1 mg LLC-PK1 cell lysates.
# as §1
# purified Na+/K+-ATPase = molecular target: T6, purified Na+/K+-ATPase (Sus scrofa, UniProt P05024); test: In vitro GST pulldown binding assay with purified Na+/K+-ATPase; design: species or system pig; settings: GST-tagged Src truncations and purified Na+/K+-ATPase
# T6 construct: Na+/K+-ATPase was purified from pig kidney outer medulla using the Jorgensen method; from tissue; host or cells: pig kidney outer medulla
# Description: as §4
# Src and ERK1/2 = test: Activation of Src and ERK1/2 in P-11, A4-11, PY-17 and AAC-19 cells (Western blot); assay type: cell-based, pig; settings: for increase in SrcTyr(P)418: n=3
# Description: FIGS. 18A and 18B. Cells were exposed to 100 nM ouabain for either 5 or 15 min, and the cell lysates (50 μg/lane) were analyzed by Western blot for active Src or active ERK1/2. Blots were probed first with anti-Tyr(P)^418-Src or anti-pERK antibody, then stripped, and reprobed for total Src or ERK1/2 to ensure equal loading.
# FIGS. 18 C and 18D. Cells were treated with indicated concentrations of ouabain for 5 min, and total cell lysates were analyzed for Tyr(P)^418-Src and total Src or pERK1/2 and total ERK1/2 as in FIGS. 18A and 18B. A representative Western blot and combined quantitative data are shown. The quantitative data (relative ratio of pSrc/Src or pERK/ERK) from three independent experiments (mean±S.E.) were calculated relative to the control condition of P-11 cells. *, p<0.05 versus the respective control condition of each cell line. con, control.
# as §2
molecule,measurement,setting,value
CC(C)(C)n1nc(-c2ccc(Cl)cc2)c2c(N)ncnc21 [PP2],block of ouabain-induced protein tyrosine phosphorylation,SYF and SYF+Src cells,able to block
same,increase in FAK Tyr(P)925 in knockdown cells,PY-17 cells,sensitive
Nc1ncnc2c1cnn2-c1ccccc1 [PP3],block of ouabain-induced recruitment of Src to the Na+/K+-ATPase,LLC-PK1 cells [1],failed to block
"CN[C@@H]1[C@@H](O)[C@@H](O[C@@H]2[C@@H](O)[C@H](O[C@H]3O[C@H]([C@@H](C)O)[C@@H](O)[C@H](O)[C@H]3N)[C@@H](N)C[C@H]2N)OC[C@]1(C)O [Peptide G418, G418]",concentration required to kill the untransfected cells,LLC-PK1 cells [2]; untransfected cells,more than 3 mg/ml
CN(CC[C@H](N)CC(=O)N[C@H]1C=C[C@H](n2ccc(N)nc2=O)O[C@@H]1C(=O)O)C(=N)N [blasticidin],sensitivity of knockdown cells,LLC-PK1 cells [2]; 15 μg/ml,sensitive to blasticidin
[O]=[V]([O-])([O-])[O-] [vanadate],inhibition of the ATPase activity,[3]; 100 μM vanadate,complete inhibition
same,inhibition of the ATPase activity,[3]; 10-100 μM vanadate,completely inhibited the ATPase activity
same,Src pY418 of Na+/K+-ATPase/Src complex,[4]; 10-100 μM vanadate,no effect on Src pY418
CD3: YFP-tagged cytosolic domain 3 of Na+/K+-ATPase α1,Src phosphorylation (pY418) in LLC-PK1 cells,Src [5],decrease Src phosphorylation
GST-CD2: GST fusion of pig kidney Na+/K+-ATPase α1 amino acid residue 152-288,interaction with Src,Src [6],interacted
same,interaction with His-tagged SH3SH2 domain of Src,Src [7],interacted with the SH3SH2 domain
same,interaction with His-tagged kinase domain of Src,Src [7],not the kinase domain
GST-CD3: GST fusion of pig kidney Na+/K+-ATPase α1 amino acid residue 350-785,Src pY418 (autophosphorylation at Tyr418),Src [8],dose-dependent inhibition
same,interaction with Src,Src [6],interacted
same,interaction with His-tagged SH3SH2 domain of Src,Src [7],not the SH3SH2 domain
same,interaction with His-tagged kinase domain of Src,Src [7],interacted with the kinase domain
same,pulldown of Src from LLC-PK1 cell lysates,Src [9],pulled down
GST-H+/K+-CD3: GST fusion of the CD3 from rat gastric H+/K+-ATPase,pulldown of Src from LLC-PK1 cell lysates,Src [9],pulled down Src
LRLEVKLGQGCFGEVWMGTWNGTTRVAIKTLKPGTMSPEAFLQEAQVMKKLRHE [KD1],activation of Na+/K+-ATPase-inhibited Src,[4]; competing the binding motif for Src,effective in activating the Na+/K+-ATPase-inhibited Src
same,binding to Na+/K+-ATPase,purified Na+/K+-ATPase,binds Na+/K+-ATPase
epidermal growth factor: epidermal growth factor,increase in SrcTyr(P)418,Src and ERK1/2; P-11 cells,2.5±0.3 fold
same,stimulation of ERK1/2,Src and ERK1/2; PY-17 cells,able to stimulate ERK1/2
same,increase in SrcTyr(P)418,Src and ERK1/2; PY-17 cells,1.7±0.2 fold

# From patent publication US9663561B2, “Methods of treatment of cancer using SRC-modulating peptides” (The University of Toledo, priority 2006, dated 2017)
